Experimental data published in ChEMBL document CHEMBL1138992, “New benzimidazoles as thrombopoietin receptor agonists” (Bioorg Med Chem Lett, 2006).

Biological target: T1, Thrombopoietin receptor (Homo sapiens) (UniProt P40238)
T1 sequence (whole entry): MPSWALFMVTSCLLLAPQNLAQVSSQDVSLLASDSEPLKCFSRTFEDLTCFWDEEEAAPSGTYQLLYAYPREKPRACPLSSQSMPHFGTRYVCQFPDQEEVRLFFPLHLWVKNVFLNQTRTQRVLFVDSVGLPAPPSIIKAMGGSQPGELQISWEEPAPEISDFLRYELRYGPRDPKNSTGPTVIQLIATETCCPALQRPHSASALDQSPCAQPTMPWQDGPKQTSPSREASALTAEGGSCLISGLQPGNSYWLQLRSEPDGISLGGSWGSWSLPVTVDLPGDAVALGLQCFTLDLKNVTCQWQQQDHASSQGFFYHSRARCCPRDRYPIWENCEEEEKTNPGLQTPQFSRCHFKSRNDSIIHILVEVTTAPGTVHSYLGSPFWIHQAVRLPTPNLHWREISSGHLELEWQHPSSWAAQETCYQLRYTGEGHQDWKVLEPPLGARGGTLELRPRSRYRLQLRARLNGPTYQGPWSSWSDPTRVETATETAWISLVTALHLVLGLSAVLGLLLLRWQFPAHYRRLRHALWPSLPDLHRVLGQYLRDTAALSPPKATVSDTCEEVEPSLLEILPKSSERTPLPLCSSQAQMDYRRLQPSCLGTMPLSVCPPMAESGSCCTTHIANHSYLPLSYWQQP
Test: (§1) Agonist activity as induced proliferation in Ba/F3-hTpoR murine lymphocyte expressing human TPOR; call rule not given here
Assay type: functional

Structure (SMILES)	Efficacy [%]
CC(C)(C)c1ccc(-c2cccc(-c3nc4cc(/C=C5\SC(=S)NC5=O)ccc4[nH]3)c2)cc1	137
C/C(=C\c1ccc2[nH]c(-c3cccc(-c4ccc(C(C)(C)C)cc4)n3)nc2c1)C(=O)O	109
CC(C)(C)c1ccc(-c2cccc(-c3nc4cc(/C=C5\SC(=S)NC5=O)ccc4[nH]3)c2O)cc1	134
CC(C)(C)c1ccc(-c2cccc(-c3nc4cc(/C=C5\SC(=S)NC5=O)ccc4[nH]3)n2)cc1	90
Cc1ccc(-c2csc(-c3nc4cc(/C=C5\SC(=S)NC5=O)ccc4[nH]3)c2)cc1C	123
Cc1ccc(-c2ccc(-c3nc4cc(/C=C5\SC(=S)NC5=O)ccc4[nH]3)s2)cc1C	117
CC(C)(C)c1ccc(-c2ccc(-c3nc4cc(/C=C5\SC(=S)NC5=O)ccc4[nH]3)o2)cc1	142
CC(C)(C)c1ccc(-c2cccc(-c3nc4cc(CC(C(=O)O)C(=O)O)ccc4[nH]3)n2)cc1	13
Cc1ccc(-c2cccc(-c3nc4cc(/C=C5\SC(=S)NC5=O)ccc4[nH]3)n2)cc1C	73
O=C1NC(=S)S/C1=C\c1ccc2[nH]c(-c3cccc(-c4ccc(Cl)c(Cl)c4)n3)nc2c1	19

Biological target: T2, Thrombopoietin receptor (Homo sapiens, UniProt P40238)
T2 sequence (P40238 whole entry): T1 sequence (whole entry)
Test: as §1
Assay type: functional

Structure (SMILES)	EC50
Cc1ccc(-c2cccc(-c3nc4c(C=C(C(=O)O)C(=O)O)cccc4[nH]3)n2)cc1C	Not Active
Cc1ccc(-c2cccc(-c3nc4c(/C=C5\SC(=S)NC5=O)cccc4[nH]3)n2)cc1C	Not Active
CCOC(=O)/C(C)=C/c1ccc2[nH]c(-c3cccc(-c4ccc(C(C)(C)C)cc4)n3)nc2c1	Not Active
C/C(=C\c1cccc2[nH]c(-c3cccc(-c4ccc(C)c(C)c4)n3)nc12)C(=O)O	Not Active
